We go through one compound from patent US9274101B2 (BIOLOG, Inc., priority 2001, dated 2016).

Each structure is given as a SMILES string.

Holding throughout (format): cell-based, human
For one test, the system named is HepG2 cells. Kind of test: HepG2 cells on flat bottom plastic wells, energy sources at a range of concentrations. As to conditions: Homo sapiens, HepG2, 72 h, read-out: HepG2 Cells Responses After 72 hours in Culture and a 4 hour Color Development Period. In short, it runs like this:
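HepG2 cells plated overnight at 4×10^4 cells/cm^2 in glucose-, glutamine- and pyruvate-free DME with 10% HI FBS, then exposed to each energy source at 0.033 to 20 mM final for 48 to 72 h at 37° C, 5% CO2. MTS/PMS colour read at 490 nm (reference 650 nm) after 4-24 h; cell-free plate OD subtracted, data normalised to % negative control (water, no energy source).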

Test [1] relates to DMSO-differentiated HL-60 cells. Nature of the test: Energy use by DMSO-differentiated HL-60 cells. As to conditions: Homo sapiens, HL-60, 24 h, read-out: Energy Use by DMSO-Differentiated HL-60 Cells. In short, it runs like this: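 HL-60 cells, […] differentiated with 1.25% DMSO for 3 days, were plated at 5×10^4/well in DME-R with test energy sources at 0.033–20 mM final for 24 h at 37 °C. Viability was measured by MTS/PMS at 490 nm (ref 650 nm) 24 h after reagent addition. Values were background-subtracted using cell-free plates and expressed as % of the no-energy-source control.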

The next test concerns HL-60 cells. Kind of test: Effect of 10 mM citric acid on HL-60 energy utilization. As to conditions: negative control without energy sources and without citric acid.

As for `NC(=O)C[C@H](N)C(=O)O` [L-asparagine], the activity at 30 µM with HepG2 cells (Conc. 0.03 mM) was 122%; in test [1] (Conc. 0.03 mM), 106%. Also, the activity at 100 µM with HepG2 cells (Conc. 0.10 mM) was found to be 190%; in test [1] (Conc. 0.10 mM) it was 112%. For the same compound, the activity at 330 µM in the test on HepG2 cells (Conc. 0.33 mM) was determined as 203%; in test [1] (Conc. 0.33 mM), 122%. Further, the activity at 1000 µM was 173% in the test on HepG2 cells (Conc. 1.00 mM) and 143% in test [1] (Conc. 1.00 mM). The activity at 3300 µM in the test with HepG2 cells (Conc. 3.3 mM) is 161%; in test [1] (Conc. 3.3 mM) it was 153%. Moreover, the activity at 10000 µM with HepG2 cells (Conc. 10 mM) turned out to be 124%; in test [1] (Conc. 10 mM) it was 167%. Besides, the activity at 15000 µM in the test with HepG2 cells (Conc. 15 mM) amounted to 112%; in test [1] (Conc. 15 mM), 152%. Besides, the activity at 20000 µM is 52.2% with HepG2 cells (Conc. 20 mM) and 134% in test [1] (Conc. 20 mM). Further, the “Effect of 10 mM Citric Acid on HL-60 Energy Utilization” value is on record as 10.1 % of negative control with HL-60 cells (energy source 0.03 mM with 10 mM citric acid); 15.3 % of negative control in the test on HL-60 cells (energy source 0.10 mM with 10 mM citric acid); 13.4 % of negative control in the test on HL-60 cells (energy source 0.33 mM with 10 mM citric acid); 24.6 % of negative control in the test with HL-60 cells (energy source 1.00 mM with 10 mM citric acid); 48.6 % of negative control in the test with HL-60 cells (energy source 3.3 mM with 10 mM citric acid); 100.1 % of negative control in the test on HL-60 cells (energy source 10 mM with 10 mM citric acid). Besides, the entries for the “Effect of 10 mM Citric Acid on HL-60 Energy Utilization” value in the test with HL-60 cells (energy source 15 mM with 10 mM citric acid) and with HL-60 cells (energy source 20 mM with 10 mM citric acid) were 97.7 % of negative control and 98.3 % of negative control, respectively.
